According to patent US20020058628A1, “Antioxidants and intracellular glutathione raising agents for therapeutic treatments” (priority 1998, published 2002):
“Also recorded” adds a separate entry of the source.

Key:
oligodendrocytes = test: Rescue of purified oligodendrocytes from apoptosis induced by switch to DMEM alone (trophic factor withdrawal); conditions: for enhancement of survival factor (IFN-γ) activity compared with NAC: co-exposure with survival factor
Protocol: After 3 days of growth in DMEM-BS, the resulting cultures of pure oligodendrocytes were switched to DMEM alone, a condition that induces apoptosis unless cells are exposed to appropriate growth factors.
Cells were then switched to DMEM alone, supplemented with 10, 50 or 500 u/ml of interferon-γ, and the number of surviving cells present after a further three days was determined by MTT staining.
After 3 days in DMEM-BS, the resulting cultures of pure oligodendrocyte were switched to DMEM alone to which was added progesterone+/−1 mM NAC (FIG. 9).
After 3 days in DMEM-BS, the resulting cultures of pure oligodendrocytes were switched to DMEM alone to which was added 10 μM Trolox+/−1 mM NAC (FIG. 10).
After 3 days in DMEM-BS, the resulting cultures of pure oligodendrocyte were switched to DMEM alone to which was added (a) progesterone (63 ug/ml)+NAC (1 mM)+trolox (100 uM)+Vitamin C (10 uM) (“combination”) or (b) CNTF (10 ng/ml)+IGF-1 (50 ng/ml)+NT-3 (5 ng/ml) (“combination”).
In all conditions, the 100% value corresponds to the cell survival seen in cultures of oligodendrocyte not subjected to trophic factor withdrawal.
After 3 days in DMEM-BS, the resulting cultures of pure oligodendrocytes were switched to DMEM alone to which was added progesterone.
Purified oligodendrocytes were generated and grown as in previous examples. 3 days after plating, cells were switched either directly to the indicated conditions (open bars) or were first switched to DMEM alone for 24 hr before the indicated factors were added in an attempt to rescue the cells (black bars). Cells were counted 3 days after switch to the indicated conditions.

spinal ganglion neurons = test: Neurite outgrowth of spinal ganglion neurons on laminin or L1; assay type: cell-based, rat; conditions: 24 hours, NGF added
From the text: To determine whether compounds that are able to raise intracellular thiol levels are able to enhance the efficacy of yet a different group of cellular signaling systems, we examined the effects of NAC supplementation on the promotion of neurite outgrowth by laminin and by L1. We first determined suboptimal concentrations for the effect of these cellular adhesion molecules, which were attached to tissue culture plastic surfaces in two different manners. Laminin was directly attached to the tissue culture surface with a cross-linking chemistry that preserves the structure of extracellular matrix molecules. L1 was attached as a dimer chimera, cross-linked by an Fc region from a human immunoglobulin molecule, by first adsorbing to the plastic surface an antibody directed against the human immunoglobulin Fc domain, followed by absorption of the L1 dimer to this surface. To promote neuronal survival, nerve growth factor (NGF), the survival factor of the spinal ganglion neurons used in this experiment, was also added at different concentrations. […] After 24 hours cultures were stained with an antibody to beta-III-tubulin and neurite length per neuron was measured.

0-2A progenitor cells = test: PDGF-induced division of purified 0-2A progenitor cells (BrdU incorporation, total cell number); assay type: cell-based, rat
Protocol: The effect of NAC on generation of 0-2A progenitors and oligodendrocytes was examined in cultures of purified 0-2A progenitors (prepared as in Example IA) exposed to platelet-derived growth factor (PDGF), the best-characterized mitogen for 0-2A progenitor cells.
NAC enhances the division-inducing effects of platelet-derived growth factor (PDGF). Purified 0-2A progenitor cells were plated on PLL-coated coverslips at a density of 3,000 cells per cover slip and exposed to PDGF (a known mitogen for these cells) at the indicated concentrations. In addition, cells were exposed to NAC at a variety of concentrations; the effects of 1 mM NAC are illustrated.
As shown previously, induction of DNA synthesis and increases in cell number by PDGF was dose-dependent.

embryonic kidney cells = test: EGF-induced proliferation of embryonic kidney cells; assay type: cell-based, rat; conditions: all EGF concentrations examined
Protocol: FIG. 7 was analyzed as for FIG. 1(B), but used embryonic kidney cells. The cells grown in the 96-well trays were derived by dissociation of kidney rudiments from 11 days embryonic rats. Cells were grown in DMEM-BDS+/−epidermal growth factor (at the concentrations indicated)+/−NAC.

[1] = test system: embryonic sensory neurons; test: Rescue of embryonic sensory neurons from apoptosis by NGF+NAC; assay type: cell-based; conditions: NAC + 1 or 10 ng/ml NGF on days 1 and 2, labeled on day 3; depending on NAC and NGF concentrations
Protocol: Cultures of embryonic sensory neurons were generated according to methods described in Groves et al., Dev. Biol., 159:87-104, (1993), the contents of which are incorporated herein by reference. The cells were exposed to sub-optimal doses of NGF. As shown in FIG. 4 cultures exposed to NAC and either 1 or 10 ng/ml NGF on days 1 and 2 and labeled on day 3 contained 300-1000% more neurons than those exposed to NGF alone, depending upon the concentrations of NAC and NGF applied.
Neurons were defined by morphology and by labeling with the TUJI antibody against β-tubuli (Groves, A. K., et al., Dev. Biol., 159:87-104 (1993); Moody, S. Q., et al., J. Comp. Neurol., 279:567-580 (1989)) cultures were in DMEM-BS. There was no BrdU labeling of neurons, nor was there any correlation between the extent of BrdU labeling in non-neuronal populations and the number of neurons present (data not shown). Analysis of DNA synthesis by BrdU incorporation (Gatzner, H. G., et al., Science, 318:474-475 (1982) confirmed that this increase in neuronal number was not due to cell division, strongly implicating differential cell death as the reason for the difference.
Values shown are means+/−SD for quadruplicate coverslips from the one of four experiments, all of which yielded similar results.

## CC(=O)[C@H]1CC[C@H]2[C@@H]3CCC4=CC(=O)CC[C@]4(C)[C@H]3CC[C@]12C [Progesterone, progesterone]
oligodendrocytes; Progesterone 6.3 ng/ml alone
  Survival (as % of DMEM-BS control): 4 ± 1%
oligodendrocytes; Progesterone .63 ng/ml alone
  Survival (as % of DMEM-BS control): 0%

## Cc1c(C)c2c(c(C)c1O)CCC(C)(C(=O)O)O2 (centres unmarked) [Trolox]
oligodendrocytes; Trolox 100 uM alone
  Survival (as % of DMEM-BS control): 6 ± 5%
oligodendrocytes
  enhancement of survival factor (IFN-γ) activity compared with NAC: similar, but lesser effects

## CC(=O)N[C@@H](CS)C(=O)O [NAC, N-acetylcysteine]
Spinal ganglion neurons; L1 2 micrograms/ml plating concentration
  neurite length on L1 with NAC versus without NAC: enhanced
Spinal ganglion neurons; laminin 2 micrograms/ml plating concentration
  neurite length on laminin with NAC versus without NAC: enhanced
oligodendrocytes; 1 mM NAC + 10 μM Trolox, DMEM alone, 3 days
  extent of survival, NAC in combination with Trolox: highly significant increases (**)
oligodendrocytes; 1 mM NAC + Vitamin C, DMEM alone, 3 days
  extent of survival, NAC in combination with Vitamin C: highly significant increases (**)
oligodendrocytes; 1 mM NAC + progesterone, DMEM alone, 3 days, no RTK/RawTK agonists
  extent of survival, NAC in combination with progesterone: highly significant increases (**)
oligodendrocytes; 1 mM NAC + various concentrations of CNTF, DMEM alone, 3 days
  extent of survival with CNTF in presence of NAC versus CNTF by itself: significant increases
oligodendrocytes; 1 mM NAC + various concentrations of IGF-1, DMEM alone, 3 days
  extent of survival with IGF-1 in presence of NAC versus IGF-1 by itself: significant increases
oligodendrocytes; 1 mM NAC alone, DMEM alone, 3 days
  cell survival with NAC alone: did not promote oligodendrocyte survival; also recorded: did not promote cell survival
oligodendrocytes; Example I-(L), counted 3 days after switch
  oligodendrocyte survival, cells switched directly to the indicated conditions: not effective at supporting oligodendrocyte survival
oligodendrocytes; NAC 1 mM alone
  Survival (as % of DMEM-BS control): 2 ± 1%
oligodendrocytes; NAC 1 mM together with IFN-γ
  extent of survival obtained with IFN-γ when NAC is applied together: dramatically enhanced the extent of survival obtained
0-2A progenitor cells; 1 mM NAC + PDGF
  ability of PDGF to induce DNA synthesis (BrdU incorporation) on addition of NAC: marked increase
  total number of cells generated by PDGF-induced cell division on addition of NAC: marked increase
0-2A progenitor cells; NAC alone, BrdU incorporation and total cell number
  induction of cell division by NAC alone: had no effect on the induction of cell division
Embryonic kidney cells
  effect of NAC on EGF-induced proliferation (cell number): enhanced the proliferative effects of EGF
[1]
  more neurons than with NGF alone: 300-1000%

## PDGF
0-2A progenitor cells; PDGF at the indicated concentrations
  induction of DNA synthesis and increases in cell number by PDGF: dose-dependent

## O=C1O[C@H]([C@@H](O)CO)C(O)=C1O [Vitamin C]
oligodendrocytes; 10 uM Vit C alone, Example I(J), DMEM alone, 3 days
  Survival (as % of DMEM-BS control): 2 ± 3%
oligodendrocytes; VitC 10 uM alone, Example I(K)
  Survival (as % of DMEM-BS control): 1 ± 1%
oligodendrocytes
  enhancement of survival factor (IFN-γ) activity compared with NAC: similar, but lesser effects

## IGF-I: oligodendrocyte survival factor, growth factor
oligodendrocytes; IGF-I 0.1 ng/ml, DMEM alone, 3 days
  Survival (as % of DMEM-BS control): 1 ± 1%

B1: interferon-γ: interferon-gamma, survival factor for oligodendrocytes (protein, UniProt P01579 24-161, looked up)
Interferon gamma: QDPYVKEAENLKKYFNAGHSDVADNGTLFLGILKNWKEESDRKIMQSQIVSFYFKLFKNFKDDQSIQKSVETIKEDMNVKFFNSNKKKRDDFEKLTNYSVTDLNVQRKAIHELIQVMAELSPAAKTGKRKRSQMLFRG
oligodendrocytes; 10, 50 or 500 u/ml, DMEM alone, 3 days, MTT staining
  oligodendrocyte survival with interferon-γ: promoted oligodendrocyte survival in a dose-dependent manner
